d = 2'-deoxy (DNA); r = 2'-OH (RNA)
Tested on: LHPP gene
Test: High-throughput screening of saRNAs targeting LHPP promoter: LHPP mRNA by one-step RT-qPCR in Huh7 cells
Assay type: cell-based, human
Details: 10 nM saRNA, 72 hours, relative to control (Mock)
How it was run: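 Huh7 cells were transfected with 10 nM saRNA using RNAiMax and lysed 72 h later. LHPP mRNA was quantified by one-step RT-qPCR in triplicate wells. Expression was normalised to HPRT1 and TBP and given as fold change versus mock-transfected cells.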

Substance	Fold of changes in relative LHPP mRNA expression level [fold]	Fold of changes in relative LHPP mRNA expression level (log2)
RAG7-35: saRNA duplex; sense GGUUUGCACCCGGUCUUCUTT (SEQ ID NO: 24), antisense AGAAGACCGGGUGCAAACCTT (SEQ ID NO: 188) (sugars from the 5' end r19 d2, backbone not given here)	1.53	0.61
RAG7-31: saRNA duplex; sense UGCACCCGGUCUUCUUGCCTT (SEQ ID NO: 94), antisense GGCAAGAAGACCGGGUGCATT (SEQ ID NO: 258) (sugars from the 5' end r19 d2, backbone not given here)	1.23	0.30
RAG7-175: saRNA duplex; sense UUGCCUUUGACCUUUCUUATT (SEQ ID NO: 60), antisense UAAGAAAGGUCAAAGGCAATT (SEQ ID NO: 224) (sugars from the 5' end r19 d2, backbone not given here)	1.34	0.42
RAG7-140: saRNA duplex; sense UUUUCCUGCUCUUUGUCCGTT (SEQ ID NO: 74), antisense CGGACAAAGAGCAGGAAAATT (SEQ ID NO: 238) (sugars from the 5' end r19 d2, backbone not given here)	1.28	0.36
RAG7-43: saRNA duplex; sense CAGUUCCGGGUUUGCACCCTT (SEQ ID NO: 93), antisense GGGUGCAAACCCGGAACUGTT (SEQ ID NO: 257) (sugars from the 5' end r19 d2, backbone not given here)	1.23	0.30
RAG7-122: saRNA duplex; sense GCUGAUCUCCUGGGAAGAATT (SEQ ID NO: 103), antisense UUCUUCCCAGGAGAUCAGCTT (SEQ ID NO: 267) (sugars from the 5' end r19 d2, backbone not given here)	1.21	0.28
RAG7-123: saRNA duplex; sense CGCUGAUCUCCUGGGAAGATT (SEQ ID NO: 68), antisense UCUUCCCAGGAGAUCAGCGTT (SEQ ID NO: 232) (sugars from the 5' end r19 d2, backbone not given here)	1.30	0.38
RAG7-853: saRNA duplex; sense AACUUGAAAGGUUCCGAGGTT (SEQ ID NO: 146), antisense CCUCGGAACCUUUCAAGUUTT (SEQ ID NO: 310) (sugars from the 5' end r19 d2, backbone not given here)	1.14	0.18
RAG7-104: saRNA duplex; sense AAGCUUCCGAAAAGGACACTT (SEQ ID NO: 43), antisense GUGUCCUUUUCGGAAGCUUTT (SEQ ID NO: 207) (sugars from the 5' end r19 d2, backbone not given here)	1.41	0.50
RAG7-128: saRNA duplex; sense UUGUCCGCUGAUCUCCUGGTT (SEQ ID NO: 111), antisense CCAGGAGAUCAGCGGACAATT (SEQ ID NO: 275) (sugars from the 5' end r19 d2, backbone not given here)	1.20	0.26
RAG7-898: saRNA duplex; sense AAGCUAUGUUGGACCAGAATT (SEQ ID NO: 59), antisense UUCUGGUCCAACAUAGCUUTT (SEQ ID NO: 223) (sugars from the 5' end r19 d2, backbone not given here)	1.34	0.43
RAG7-890: saRNA duplex; sense UUGGACCAGAAGUAAAGUGTT (SEQ ID NO: 76), antisense CACUUUACUUCUGGUCCAATT (SEQ ID NO: 240) (sugars from the 5' end r19 d2, backbone not given here)	1.28	0.36
RAG7-697: saRNA duplex; sense CCCAGGUCCUAUGCAUCCUTT (SEQ ID NO: 41), antisense AGGAUGCAUAGGACCUGGGTT (SEQ ID NO: 205) (sugars from the 5' end r19 d2, backbone not given here)	1.43	0.51
RAG7-112: saRNA duplex; sense UGGGAAGAAAGCUUCCGAATT (SEQ ID NO: 82), antisense UUCGGAAGCUUUCUUCCCATT (SEQ ID NO: 246) (sugars from the 5' end r19 d2, backbone not given here)	1.26	0.33
RAG7-139: saRNA duplex; sense UUUCCUGCUCUUUGUCCGCTT (SEQ ID NO: 7), antisense GCGGACAAAGAGCAGGAAATT (SEQ ID NO: 171) (sugars from the 5' end r19 d2, backbone not given here)	1.73	0.79
RAG7-707: saRNA duplex; sense UUCUUCUCAGCCCAGGUCCTT (SEQ ID NO: 8), antisense GGACCUGGGCUGAGAAGAATT (SEQ ID NO: 172) (sugars from the 5' end r19 d2, backbone not given here)	1.72	0.78
RAG7-169: saRNA duplex; sense UUGACCUUUCUUAGGGACUTT (SEQ ID NO: 61), antisense AGUCCCUAAGAAAGGUCAATT (SEQ ID NO: 225) (sugars from the 5' end r19 d2, backbone not given here)	1.34	0.42
RAG7-894: saRNA duplex; sense UAUGUUGGACCAGAAGUAATT (SEQ ID NO: 37), antisense UUACUUCUGGUCCAACAUATT (SEQ ID NO: 201) (sugars from the 5' end r19 d2, backbone not given here)	1.45	0.54
RAG7-776: saRNA duplex; sense UAGCAUCGAGUGGUAUUUUTT (SEQ ID NO: 56), antisense AAAAUACCACUCGAUGCUATT (SEQ ID NO: 220) (sugars from the 5' end r19 d2, backbone not given here)	1.35	0.44
RAG7-686: saRNA duplex; sense UGCAUCCUCAUCUAUGCAGTT (SEQ ID NO: 86), antisense CUGCAUAGAUGAGGAUGCATT (SEQ ID NO: 250) (sugars from the 5' end r19 d2, backbone not given here)	1.25	0.32

Source: patent US20220096516A1, “OLIGONUCLEOTIDE MOLECULE AND APPLICATION THEREOF IN TUMOR THERAPY” (Ractigen Therapeutics, priority 2019, published 2022)
